From PMC4915685 (PLoS ONE, 2016)

Columns and labels:
human plasma protein = assay: Plasma protein binding; type: in vitro ADME; conditions: over the range of 0.1 to 10 μg/mL (unpublished results)
[1] = molecular target: T1, prolyl endopeptidase (PEP) (Rattus norvegicus, UniProt O70196); assay: PEP inhibition assay; type: biochemical
T1 construct: were prepared from rat kidney and brain, respectively; from tissue; host or cells: rat brain
T1 sequence (O70196 1-710): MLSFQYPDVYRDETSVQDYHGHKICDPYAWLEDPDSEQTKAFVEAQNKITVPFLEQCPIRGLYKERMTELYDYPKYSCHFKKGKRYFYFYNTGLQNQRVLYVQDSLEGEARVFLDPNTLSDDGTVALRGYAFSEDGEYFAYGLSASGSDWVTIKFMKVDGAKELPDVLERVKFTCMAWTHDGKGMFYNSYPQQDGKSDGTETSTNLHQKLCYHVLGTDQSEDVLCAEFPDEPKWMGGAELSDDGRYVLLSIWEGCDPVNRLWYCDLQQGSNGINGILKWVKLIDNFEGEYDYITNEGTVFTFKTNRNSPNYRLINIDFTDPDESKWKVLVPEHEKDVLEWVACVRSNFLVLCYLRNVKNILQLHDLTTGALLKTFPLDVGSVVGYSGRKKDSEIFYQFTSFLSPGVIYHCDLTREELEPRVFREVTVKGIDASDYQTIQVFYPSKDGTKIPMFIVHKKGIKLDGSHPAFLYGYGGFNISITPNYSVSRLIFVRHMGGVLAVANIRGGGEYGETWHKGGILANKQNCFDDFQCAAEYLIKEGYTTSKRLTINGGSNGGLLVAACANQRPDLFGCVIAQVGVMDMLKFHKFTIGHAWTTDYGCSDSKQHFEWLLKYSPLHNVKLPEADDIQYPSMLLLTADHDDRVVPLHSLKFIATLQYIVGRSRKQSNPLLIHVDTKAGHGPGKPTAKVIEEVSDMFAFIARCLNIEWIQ

[2] = parameters: method as in earlier work; conditions: 100 mg single dose, 168 hours after administration, Japanese healthy volunteers; cited from earlier work
T2DM patients = conditions: cited from earlier work
[3] = molecular target: T2, dog plasma DPP-4 activity (Canis lupus familiaris, UniProt A0A8I3Q2I8); assay: Inhibition of plasma DPP-4 activity, dog plasma (GP-pNA); type: biochemical
T2 construct: tissue Kitayama Labes Co., Ltd. (animals); host or cells: beagle dog plasma
T2 sequence (A0A8I3Q2I8 1-765): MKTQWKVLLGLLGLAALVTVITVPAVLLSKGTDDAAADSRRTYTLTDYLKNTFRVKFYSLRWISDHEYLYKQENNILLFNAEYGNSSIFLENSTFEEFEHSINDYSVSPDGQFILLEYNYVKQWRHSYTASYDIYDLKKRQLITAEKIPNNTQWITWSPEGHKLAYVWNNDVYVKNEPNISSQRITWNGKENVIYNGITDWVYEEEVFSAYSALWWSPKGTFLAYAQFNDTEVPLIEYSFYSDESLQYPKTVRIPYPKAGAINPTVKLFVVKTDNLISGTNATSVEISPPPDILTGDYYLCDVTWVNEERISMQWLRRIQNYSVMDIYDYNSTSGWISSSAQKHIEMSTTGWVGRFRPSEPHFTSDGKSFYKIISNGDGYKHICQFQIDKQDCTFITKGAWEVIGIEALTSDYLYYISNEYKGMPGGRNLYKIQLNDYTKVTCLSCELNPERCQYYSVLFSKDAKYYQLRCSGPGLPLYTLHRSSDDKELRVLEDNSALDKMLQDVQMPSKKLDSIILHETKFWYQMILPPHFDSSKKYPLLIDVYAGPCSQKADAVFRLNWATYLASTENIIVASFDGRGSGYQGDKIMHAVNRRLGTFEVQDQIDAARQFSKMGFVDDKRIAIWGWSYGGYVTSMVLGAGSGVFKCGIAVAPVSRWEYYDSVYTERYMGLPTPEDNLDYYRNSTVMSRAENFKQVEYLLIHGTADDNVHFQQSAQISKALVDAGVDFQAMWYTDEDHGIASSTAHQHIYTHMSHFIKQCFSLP
Procedure: Male Sprague–Dawley rats (7 weeks old, n = 30) and male beagle dogs (2–5 years old, n = 3) were purchased from CLEA Japan (Tokyo, Japan) and Kitayama Labes Co., Ltd. (Nagano, Japan), respectively. […] Rat blood samples were taken from abdominal vein under ether inhalation anesthesia in anesthetized rats before euthanasia by exsanguination. Dog blood samples were collected from anterior limb veins in conscious dogs that were restrained in a retainer. […] Plasma samples were prepared and stored at -80°C before use.

SMILES | binding to human plasma protein (human plasma protein) | IC50 [1] | plasma trelagliptin concentration [mean (SD)] [2] | safety in clinical studies (T2DM patients; clinical studies) | efficacy in terms of reduction of HbA1c versus alogliptin 25 mg daily dosing (T2DM patients; trelagliptin 100 mg weekly dosing, T2DM patients) | IC50 [3]
Cn1c(=O)cc(N2CCC[C@@H](N)C2)n(Cc2ccccc2C#N)c1=O [alogliptin, 2-[6-(3(R)-aminopiperidin-1-yl)-3-methyl-2,4-dioxo-3,4-dihydro-2H-pyrimidin-1-ylmethyl]benzonitrile, reference compound] | 28.2–32.3% |  |  |  |  | 
Cn1c(=O)cc(N2CCC[C@@H](N)C2)n(Cc2cc(F)ccc2C#N)c1=O [trelagliptin, 2-[6-(3(R)-aminopiperidin-1-yl)-3-methyl-2,4-dioxo-3,4-dihydro-2H-pyrimidin-1-ylmethyl]-4-fluorobenzonitrile] | 22.1–27.6% | > 100 µM | 2.12 (0.679) ng/mL | no major safety concerns | non-inferior | 6.2 nM
